# Measurements as given in US20120277184A1 (priority 2004, published 2012).
# Read-outs that look alike come from different tables or passages of the source.
# Tests used:
# LeTx = LeTx (Bacillus anthracis, UniProt P13423); conditions: raw 264.7 cells
# α-HL [1] = biological target: T1, α-HL (Staphylococcus aureus, UniProt P09616)
# α-HL [2] = biological target: T1, α-HL; type: biochemical; conditions: read-out: Inhibition of trans-membrane conductance IC50
# ε-toxin = ε-toxin (Clostridium perfringens, UniProt Q02307)
# Sequence of ε-toxin (Q02307 46-306 limits assumed): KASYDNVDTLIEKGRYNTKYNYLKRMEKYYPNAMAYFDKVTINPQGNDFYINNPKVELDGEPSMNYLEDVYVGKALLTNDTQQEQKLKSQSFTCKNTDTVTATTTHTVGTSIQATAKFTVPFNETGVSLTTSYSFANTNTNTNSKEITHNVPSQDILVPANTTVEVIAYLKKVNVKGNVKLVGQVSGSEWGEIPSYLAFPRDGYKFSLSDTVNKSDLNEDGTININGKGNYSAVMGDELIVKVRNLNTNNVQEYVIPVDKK
# [3] = rat, in vivo; cited from earlier work
# T1 sequence (P09616 27-319 limits assumed): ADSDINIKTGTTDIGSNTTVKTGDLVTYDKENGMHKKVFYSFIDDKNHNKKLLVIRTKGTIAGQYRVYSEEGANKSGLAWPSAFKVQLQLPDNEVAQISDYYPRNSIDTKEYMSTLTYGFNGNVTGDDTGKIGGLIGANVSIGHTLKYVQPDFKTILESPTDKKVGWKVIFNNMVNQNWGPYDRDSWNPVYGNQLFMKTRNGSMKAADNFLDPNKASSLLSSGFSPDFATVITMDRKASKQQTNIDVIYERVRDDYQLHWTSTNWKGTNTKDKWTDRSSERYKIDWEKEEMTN
# Sequence of LeTx (P13423 197-764 limits assumed): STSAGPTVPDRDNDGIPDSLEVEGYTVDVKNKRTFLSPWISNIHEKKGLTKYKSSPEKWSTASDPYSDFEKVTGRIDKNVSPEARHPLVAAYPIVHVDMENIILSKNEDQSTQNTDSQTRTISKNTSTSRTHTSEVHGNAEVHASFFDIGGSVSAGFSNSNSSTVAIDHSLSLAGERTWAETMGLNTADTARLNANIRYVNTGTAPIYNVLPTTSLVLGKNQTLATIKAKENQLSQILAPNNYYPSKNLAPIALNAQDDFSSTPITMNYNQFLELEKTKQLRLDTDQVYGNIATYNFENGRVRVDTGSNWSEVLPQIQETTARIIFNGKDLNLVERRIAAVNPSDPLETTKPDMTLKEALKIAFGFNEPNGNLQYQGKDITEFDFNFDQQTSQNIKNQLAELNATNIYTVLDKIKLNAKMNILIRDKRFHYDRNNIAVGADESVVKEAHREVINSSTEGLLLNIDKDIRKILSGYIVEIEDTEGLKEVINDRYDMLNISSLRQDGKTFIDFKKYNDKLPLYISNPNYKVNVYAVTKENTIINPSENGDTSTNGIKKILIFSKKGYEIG
compound,measurement,setting,value
Cc1ccc(CNC[C@H]2O[C@@H]3O[C@H]4[C@H](O)[C@@H](O)[C@@H](O[C@H]5[C@H](O)[C@@H](O)[C@@H](O[C@H]6[C@H](O)[C@@H](O)[C@@H](O[C@H]7[C@H](O)[C@@H](O)[C@@H](O[C@H]8[C@H](O)[C@@H](O)[C@@H](O[C@H]9[C@H](O)[C@@H](O)[C@@H](O[C@H]2[C@H](O)[C@H]3O)O[C@@H]9CNCc2ccc(C)cc2)O[C@@H]8CNCc2ccc(C)cc2)O[C@@H]7CNCc2ccc(C)cc2)O[C@@H]6CNCc2ccc(C)cc2)O[C@@H]5CNCc2ccc(C)cc2)O[C@@H]4CNCc2ccc(C)cc2)cc1 [Compound 8],IC50,LeTx,0.5 ± 0.2 µM
O[C@@H]1[C@@H](O)[C@H]2O[C@H]3[C@H](O)[C@@H](O)[C@@H](O[C@H]4[C@H](O)[C@@H](O)[C@@H](O[C@H]5[C@H](O)[C@@H](O)[C@@H](O[C@H]6[C@H](O)[C@@H](O)[C@@H](O[C@H]7[C@H](O)[C@@H](O)[C@@H](O[C@H]8[C@H](O)[C@@H](O)[C@@H](O[C@@H]1[C@@H](CNCc1ccc(Cl)cc1)O2)O[C@@H]8CNCc1ccc(Cl)cc1)O[C@@H]7CNCc1ccc(Cl)cc1)O[C@@H]6CNCc1ccc(Cl)cc1)O[C@@H]5CNCc1ccc(Cl)cc1)O[C@@H]4CNCc1ccc(Cl)cc1)O[C@@H]3CNCc1ccc(Cl)cc1 [Compound 9],IC50,LeTx,5.4 ± 0.8 µM
O[C@@H]1[C@@H](O)[C@H]2O[C@H]3[C@H](O)[C@@H](O)[C@@H](O[C@H]4[C@H](O)[C@@H](O)[C@@H](O[C@H]5[C@H](O)[C@@H](O)[C@@H](O[C@H]6[C@H](O)[C@@H](O)[C@@H](O[C@H]7[C@H](O)[C@@H](O)[C@@H](O[C@H]8[C@H](O)[C@@H](O)[C@@H](O[C@@H]1[C@@H](CNCc1ccc(Br)cc1)O2)O[C@@H]8CNCc1ccc(Br)cc1)O[C@@H]7CNCc1ccc(Br)cc1)O[C@@H]6CNCc1ccc(Br)cc1)O[C@@H]5CNCc1ccc(Br)cc1)O[C@@H]4CNCc1ccc(Br)cc1)O[C@@H]3CNCc1ccc(Br)cc1 [Compound 10],Inhibition of α-HL hemolytic activity (in words),α-HL [1],did not display any activity
same,IC50,α-HL [1]; erythrocytes,> 100 µM
CC(C)(C)OC(=O)NC(CCCN)C(=O)NCC1OC2OC3C(CNC(=O)C(CCCN)NC(=O)OC(C)(C)C)OC(OC4C(CNC(=O)C(CCCN)NC(=O)OC(C)(C)C)OC(OC5C(CNC(=O)C(CCCN)NC(=O)OC(C)(C)C)OC(OC6C(CNC(=O)C(CCCN)NC(=O)OC(C)(C)C)OC(OC7C(CNC(=O)C(CCCN)NC(=O)OC(C)(C)C)OC(OC8C(CNC(=O)C(CCCN)NC(=O)OC(C)(C)C)OC(OC1C(O)C2O)C(O)C8O)C(O)C7O)C(O)C6O)C(O)C5O)C(O)C4O)C(O)C3O (stereo not shown) [Compound 11],IC50,α-HL [2],~0.05 µM
same,IC50,α-HL [1],3.3 µM
same,Inhibition of α-HL hemolytic activity (in words),α-HL [1],inhibits α-HL
CC(C)(C)OC(=O)NC(CCCN)C(=O)NCC1OC2OC3C(CNC(=O)C(CCCN)NC(=O)OC(C)(C)C)OC(OC4C(CNC(=O)C(CCCN)NC(=O)OC(C)(C)C)OC(OC5C(CNC(=O)C(CCCN)NC(=O)OC(C)(C)C)OC(OC6C(CNC(=O)C(CCCN)NC(=O)OC(C)(C)C)OC(OC7C(CNC(=O)C(CCCN)NC(=O)OC(C)(C)C)OC(OC8C(CNC(=O)C(CCCN)NC(=O)OC(C)(C)C)OC(OC9C(CNC(=O)C(CCCN)NC(=O)OC(C)(C)C)OC(OC1C(O)C2O)C(O)C9O)C(O)C8O)C(O)C7O)C(O)C6O)C(O)C5O)C(O)C4O)C(O)C3O (stereo not shown) [Compound 12],IC50,α-HL [1],> 100 µM
Cc1ccc(CNCC2OC3OC4C(CNCc5ccc(C)cc5)OC(OC5C(CNCc6ccc(C)cc6)OC(OC6C(CNCc7ccc(C)cc7)OC(OC7C(CNCc8ccc(C)cc8)OC(OC8C(CNCc9ccc(C)cc9)OC(OC9C(CNCc%10ccc(C)cc%10)OC(OC2C(O)C3O)C(O)C9O)C(O)C8O)C(O)C7O)C(O)C6O)C(O)C5O)C(O)C4O)cc1 (stereo not shown) [Compound 5105],IC50,ε-toxin,20 ± 10 µM
same,Inhibition of ε-toxin cytotoxicity / protection of MDCK cells (in words),ε-toxin,protection
OC1C2OC(CNCc3ccc(Cl)cc3)C(OC3OC(CNCc4ccc(Cl)cc4)C(OC4OC(CNCc5ccc(Cl)cc5)C(OC5OC(CNCc6ccc(Cl)cc6)C(OC6OC(CNCc7ccc(Cl)cc7)C(OC7OC(CNCc8ccc(Cl)cc8)C(OC8OC(CNCc9ccc(Cl)cc9)C(O2)C(O)C8O)C(O)C7O)C(O)C6O)C(O)C5O)C(O)C4O)C(O)C3O)C1O (stereo not shown) [Compound 5130],IC50,ε-toxin,21 ± 9 µM
OC1C2OC(CNCc3ccc(Br)cc3)C(OC3OC(CNCc4ccc(Br)cc4)C(OC4OC(CNCc5ccc(Br)cc5)C(OC5OC(CNCc6ccc(Br)cc6)C(OC6OC(CNCc7ccc(Br)cc7)C(OC7OC(CNCc8ccc(Br)cc8)C(OC8OC(CNCc9ccc(Br)cc9)C(O2)C(O)C8O)C(O)C7O)C(O)C6O)C(O)C5O)C(O)C4O)C(O)C3O)C1O (stereo not shown) [Compound 5137],IC50,ε-toxin,20 ± 1 µM
β-cyclodextrin [β-CD],Bioavailability,[3],0.1-4%
